Target: T1, Spf1p (Saccharomyces cerevisiae, UniProt P39986)
T1 sequence (P39986 1-1215): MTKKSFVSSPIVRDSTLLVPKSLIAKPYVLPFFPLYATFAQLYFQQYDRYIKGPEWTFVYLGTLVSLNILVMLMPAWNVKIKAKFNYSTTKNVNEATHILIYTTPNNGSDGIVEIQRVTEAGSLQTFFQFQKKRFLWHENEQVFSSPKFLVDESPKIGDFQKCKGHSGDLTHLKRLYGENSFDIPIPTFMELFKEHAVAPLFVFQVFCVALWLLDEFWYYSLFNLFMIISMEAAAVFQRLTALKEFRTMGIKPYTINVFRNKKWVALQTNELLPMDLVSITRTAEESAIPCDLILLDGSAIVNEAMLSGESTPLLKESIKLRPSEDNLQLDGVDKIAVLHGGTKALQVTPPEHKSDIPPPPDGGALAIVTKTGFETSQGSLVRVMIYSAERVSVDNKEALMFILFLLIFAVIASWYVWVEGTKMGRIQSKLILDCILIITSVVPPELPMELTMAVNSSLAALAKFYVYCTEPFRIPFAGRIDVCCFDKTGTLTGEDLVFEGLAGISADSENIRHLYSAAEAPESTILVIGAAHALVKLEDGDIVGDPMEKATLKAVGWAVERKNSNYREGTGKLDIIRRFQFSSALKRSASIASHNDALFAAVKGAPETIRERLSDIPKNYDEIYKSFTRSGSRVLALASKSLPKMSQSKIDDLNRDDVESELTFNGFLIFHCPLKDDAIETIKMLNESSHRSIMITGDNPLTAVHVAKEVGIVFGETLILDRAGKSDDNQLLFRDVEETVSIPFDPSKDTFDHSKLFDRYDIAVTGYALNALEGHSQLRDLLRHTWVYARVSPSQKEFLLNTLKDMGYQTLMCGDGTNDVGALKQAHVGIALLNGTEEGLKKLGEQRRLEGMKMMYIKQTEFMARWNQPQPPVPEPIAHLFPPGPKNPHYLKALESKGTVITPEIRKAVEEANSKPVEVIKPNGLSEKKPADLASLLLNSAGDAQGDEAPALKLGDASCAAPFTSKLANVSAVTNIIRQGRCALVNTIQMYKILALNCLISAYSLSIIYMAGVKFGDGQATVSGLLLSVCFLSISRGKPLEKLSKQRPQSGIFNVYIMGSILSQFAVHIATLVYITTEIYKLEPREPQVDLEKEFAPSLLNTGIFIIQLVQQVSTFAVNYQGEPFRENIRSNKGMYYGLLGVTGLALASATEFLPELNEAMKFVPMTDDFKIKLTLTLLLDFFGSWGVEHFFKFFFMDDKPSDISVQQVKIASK
Experiment: inhibition of ATP hydrolysis by purified Spf1p
Assay type: biochemical

For `[O]=[V]([OH])([OH])[OH]` [vanadate], the Ki was 9.8 ± 2.4 µM.

— paper PMC6724510 (Molecular Biology of the Cell, 2019)
